Marks after values point to notes of the source that are not given here.
Tested on: C2C12 myotubes
Assay: Protein synthesis rate (FSR) in C2C12 myotubes after pretreatment with 1,25(OH)2 Vitamin D3, with or without leucine and insulin
Type: cell-based, mouse
Conditions: for increase in muscle protein synthesis rate: C2C12 myotubes treated only with vitamin D3, with leucine alone, or with both; for change (%) in protein synthesis rate vs no pretreatment with vitamin D3: 72 h pretreatment
Procedure: An experimental in vitro study is performed to evaluate the synergistic or additional action of leucine and vitamin D on intracellular pathways regulating protein synthesis in muscle cells.
C2C12 mouse myoblasts are obtained from the American Type Culture Source Collection (no. CRL-1772). Myoblasts are cultured at 37° C. in an atmosphere of 5% CO2 in grown medium consisting of Dulbecco's modified Eagle's medium (DMEM) supplemented with 10% foetal calf serum and antibiotics. Myotube C2C12 differentiation is induced by withdrawing foetal calf serum from confluent cells and adding 10 μg/ml insulin, 5 μg/ml transferrin and 2% horse serum.
Confluent C2C12 myotubes are treated with vehicles alone or with different doses of 1,25(OH)2 D3. Subsequently, the cells are deprived of horse serum by incubation in a serum-free medium for the two remaining hours. During this deprivation period, different amounts of leucine and insulin are added to the medium before harvesting cells.
Medium with or without leucine supplementation are used to assess the synergistic or additional action of leucine and vitamin D on intracellular pathways regulating protein synthesis (Akt, mTOR) and/or on direct measure of protein synthesis.
Protein synthesis rate (FSR) in C2C12 myotubes after 72 h pretreatments with 0, 1 or 10 nm of 1,25(OH)2 Vitamin D3 is depicted in FIG. 1.
FIG. 1: Protein synthesis rate (FSR) in C2C12 myotubes after 72 h pretreatments with 0, 1 or 10 nm of 1,25(OH)2 Vitamin D3.

| SMILES | increase in muscle protein synthesis rate | effect on muscle protein synthesis (in words) (C2C12 myotubes, vitamin D3 dose 1 or 10 nM) | change (%) in protein synthesis rate vs no pretreatment with vitamin D3 ([Vitamin D] = 1 nM, Ins + leu, vs [Vit D] = 0 Ins + leu) | change (%) in protein synthesis rate vs no pretreatment with vitamin D3 ([Vitamin D] = 1 nM, No stim, vs [Vit D] = 0 No stim) | change (%) in protein synthesis rate vs no pretreatment with vitamin D3 ([Vitamin D] = 10 nM, Ins + leu, vs [Vit D] = 0 Ins + leu) | change (%) in protein synthesis rate vs no pretreatment with vitamin D3 ([Vitamin D] = 10 nM, No stim, vs [Vit D] = 0 No stim) |
| --- | --- | --- | --- | --- | --- | --- |
| C=C1/C(=C\C=C2/CCC[C@]3(C)[C@@H]([C@H](C)CCCC(C)(C)O)CC[C@@H]23)C[C@@H](O)C[C@@H]1O [Vitamin D, 1,25-dihydroxycholecalciferol] | 14.3% | can stimulate muscle protein synthesis independently of leucine presence | 9.8* % | 14.0* % | 14.3* % | 14.3* % |
| CC(C)C[C@H](N)C(=O)O [leucine, L-leucine] | 10.7% | – | – | – | – | – |

Reference: US10045999B2, “Nutritional composition for the stimulation of muscle protein synthesis” (N. V. Nutricia, priority 2010, dated 2018)
